Laboratory results taken from patent publication US20260062422A1 (Halda Therapeutics OpCo, Inc., priority 2022, published 2026).

Assays:
[1] = system: T-Rex 293 cell line SC3 cells having increased expression of androgen receptor protein due to exposure to doxycycline; experiment: Cellular growth inhibition, T-Rex 293 SC3 cells with doxycycline (androgen receptor induced), CellTiter-Glo; format: cell-based; settings: 72 h, T-Rex 293 SC3 cells with 10 ng/mL doxycycline (increased androgen receptor expression)
Description: (§1) The following types of cells were prepared for this experiment: (i) a T-Rex 293 cell line having increased expression of androgen receptor protein due to exposure to doxycycline and (ii) a T-Rex 293 cell line lacking increased expression of androgen receptor protein. Ability of the test compounds to inhibit proliferation of the foregoing cell types was evaluated according to the procedures set forth below.
(§2) The doxycycline-inducible androgen receptor protein expressing cell line was established using the following protocol: T-Rex 293 cells were purchased from Invitrogen (Cat #R71007) and transfected using Lipofectamine 2000 with the wild-type androgen receptor protein sequence cloned into the pcDNA4/TO vector. Transfected cells were selected using 400 μg/mL Zeocin (Invitrogen Cat #R25001). Following selection, single clones were raised and maintained in Dulbecco's Modified Eagle Medium (DMEM) supplemented with 10% w/w Tetracycline-free fetal bovine serum (FBS) and 250 μg/mL Zeocin. Clones were analyzed for expression of androgen receptor protein in the presence and absence of 10 ng/mL doxycycline (Sigma Cat #D9891), and a single doxycycline-inducible clone (hereinafter “SC3”) was selected for use in downstream assays.
(§3) The SC3 cells were seeded on poly-D-lysine coated, black clear-bottom 384-well plates at 2500/well, in 25 μL Phenol Red Free Dulbecco's Modified Eagle Medium (DMEM) supplemented with 10% w/w charcoal-dextran treated fetal bovine serum (FBS) and 1% w/w pen-strep, with or without 10 ng/mL doxycycline. Pen-Strep is a commercially available mixture of penicillin G and streptomycin, which is used in mammalian cell culture media to prevent bacterial contamination. Phenol Red Free Dulbecco's Modified Eagle Medium (DMEM) supplemented with 10% w/w charcoal-dextran treated fetal bovine serum (FBS) and 1% w/w pen-strep, with or without 10 ng/mL doxycycline is herein referred to as Treatment Medium. Following seeding of cells in the plates, the plates were spun at 300×g for 30 seconds, then equilibrated to room temperature for 30 minutes, and then deposited in a humidified tissue culture incubator maintained at 37° C. with 5% CO2.
(§4) At 24 hours after seeding of the cells, dilutions of test compound were prepared in DMSO and dissolved in Treatment Medium, to achieve a final DMSO concentration of 0.5% w/w, thereby providing the Test Compound Solution. A 25 μL aliquot of the Test Compound Solution was added to cells in the well plates. An equal volume of a solution containing DMSO and Treatment Medium was used as a negative control. Following treatment of cells with Test Compound Solution or said equal volume of a solution containing DMSO and Treatment Medium, the plates were spun at 300×g for 30 seconds, and then left in an incubator for 72 hours. At the end of the treatment duration, cell viability was quantified with CellTiter-Glo 2.0 reagent (Promega Cat #G9243). For this purpose, plates were equilibrated to room temperature for 30 minutes, and then 25 μL of CellTiter-Glo 2.0 reagent was added to cells in the plate wells. Plates were then agitated on a shaker for two minutes at 500 rpm and subsequently incubated at room temperature for 10 minutes. Following incubation, the plates were spun at 3000×g for 30 seconds, then sealed with an optical adhesive cover, and luminescence readings were measured with an EnVision Plate Reader. Data was normalized using zero luminescence for baseline. A four-parameter non-linear regression curve fit was applied to dose-response data in GraphPad Prism data analysis software to determine the half-maximal growth inhibitory concentration (GI50) for each test compound.

[2] = system: T-Rex 293 cell line SC3 cells lacking increased expression of androgen receptor protein; experiment: Cellular growth inhibition, T-Rex 293 SC3 cells without doxycycline, CellTiter-Glo; format: cell-based; settings: 72 h, T-Rex 293 SC3 cells not exposed to doxycycline, CellTiter-Glo 2.0
Description: as §1, §2, §3, §4

[3] = system: VCaP cells; experiment: Cellular growth inhibition assay for VCaP cells, CellTiter-Glo; format: cell-based, human; settings: Homo sapiens, VCaP, 72 h, 72 hours treatment, CellTiter-Glo 2.0
Description: VCaP cells were purchased from American Type Cell Culture (ATCC Cat #CRL2876) and then seeded on poly-D-lysine coated, black clear-bottom 384-well plates at 5000/well in 25 μL Dulbecco's Modified Eagle Medium (DMEM) supplemented with 10% w/w Fetal bovine serum (FBS) and 1% w/w Pen-Strep. Pen-Strep is a commercially available mixture of penicillin G and streptomycin, which is used in mammalian cell culture media to prevent bacterial contamination. Dulbecco's Modified Eagle Medium (DMEM) supplemented with 10% w/w fetal bovine serum (FBS) and 1% w/w Pen-Strep is herein referred to as Treatment Medium. Following seeding of cells in the plates, the plates were spun at 300×g for 30 seconds, then equilibrated to room temperature for 30 minutes, and then deposited in a humidified tissue culture incubator maintained at 37° C. with 5% CO2.
At 24 hours after seeding of the cells, dilutions of test compound were prepared in DMSO and dissolved in Treatment Medium, to achieve a final DMSO concentration of 0.5% w/w, thereby providing the Test Compound Solution. A 25 μL aliquot of the Test Compound Solution was added to cells in the well plates. An equal volume of a solution containing DMSO and Treatment Medium was used as a negative control. Following treatment of cells with Test Compound Solution or said equal volume of a solution containing DMSO and Treatment Medium, the plates were spun at 300×g for 30 seconds, and then left in an incubator for 72 hours.
At the end of the treatment duration, cell viability was quantified with CellTiter-Glo 2.0 reagent (Promega Cat #G9243). For this purpose, plates were equilibrated to room temperature for 30 minutes, and then 25 μL of CellTiter-Glo 2.0 reagent was added to cells in the plate wells. Plates were then agitated on a shaker for two minutes at 500 rpm and subsequently incubated at room temperature for 10 minutes. Following incubation, the plates were spun at 3000×g for 30 seconds, then sealed with an optical adhesive cover, and luminescence readings were measured with an EnVision Plate Reader.
Data was normalized using zero luminescence for baseline. A four-parameter non-linear regression curve fit was applied to dose-response data in GraphPad Prism data analysis software to determine the half-maximal growth inhibitory concentration (GI50) for each test compound.

| Structure (SMILES) | GI50 [1] [nM] | GI50 [2] [nM] | GI50 [3] [nM] |
| --- | --- | --- | --- |
| CCNC(=O)C[C@@H]1N=C(c2ccc(CCCCCCCOC3CCN(c4ncc(C(=O)N[C@H]5C(C)(C)[C@H](Oc6ccc(C#N)c(Cl)c6)C5(C)C)cn4)CC3)cc2)c2c(sc(C)c2C)-n2c(C)nnc21 [Compound I-92] | < 500 | > 3000 | < 500 |
| Cc1sc2c(c1C)C(c1ccc(Cl)cc1)=N[C@@H](CC(=O)NCCCCCCCCOC1CCN(c3ncc(C(=O)N[C@H]4C(C)(C)[C@H](Oc5ccc(C#N)c(Cl)c5)C4(C)C)cn3)CC1)c1nnc(C)n1-2 [Compound I-25] | < 500 | > 3000 | > 3000 |
| Cc1sc2c(c1C)C(c1ccc(Cl)cc1)=N[C@@H](CC(=O)NCCCCCCOC1CCN(c3ncc(C(=O)N[C@H]4C(C)(C)[C@H](Oc5ccc(C#N)c(Cl)c5)C4(C)C)cn3)CC1)c1nnc(C)n1-2 [Compound I-23] | < 500 | < 500 | < 500 |
| Cc1sc2c(c1C)C(c1ccc(N3CCN(c4ncc(C(=O)N[C@H]5C(C)(C)[C@H](Oc6ccc(C#N)c(Cl)c6)C5(C)C)cn4)CC(F)(F)C3)cc1)=NC(Cc1ncco1)c1nnc(C)n1-2 (stereo partly drawn) [Compound I-670] | < 500 | > 3000 | < 500 |
| Cc1sc2c(c1C)C(c1ccc(-c3cn(C4CCN(c5ncc(C(=O)N[C@H]6C(C)(C)[C@H](Oc7ccc(C#N)c(Cl)c7)C6(C)C)cn5)CC4)nn3)cc1)=NC(Cc1ncco1)c1nnc(C)n1-2 (stereo partly drawn) [Compound I-483] | < 500 | < 500 | < 500 |
| CCNC(=O)C[C@@H]1N=C(c2ccc(OCCOCCOC3CCN(c4ncc(C(=O)N[C@H]5C(C)(C)[C@H](Oc6ccc(C#N)c(Cl)c6)C5(C)C)cn4)CC3)cc2F)c2c(sc(C)c2C)-n2c(C)nnc21 [Compound I-77] | < 500 | 500 to 1500 | 500 to 1500 |
| Cc1sc2c(c1C)C(c1ccc(Cl)cc1)=N[C@@H](CC(=O)NCCOCCCOC1CCN(c3ncc(C(=O)N[C@H]4C(C)(C)[C@H](Oc5ccc(C#N)c(Cl)c5)C4(C)C)cn3)CC1)c1nnc(C)n1-2 [Compound I-27] | < 500 | 500 to 1500 | < 500 |
| CCNC(=O)C[C@@H]1N=C(c2ccc(CCCCCCOC3CCN(c4ncc(C(=O)N[C@H]5C(C)(C)[C@H](Oc6ccc(C#N)c(Cl)c6)C5(C)C)cn4)CC3)cc2)c2c(sc(C)c2C)-n2c(C)nnc21 [Compound I-90] | < 500 | > 3000 | > 3000 |
| Cc1sc2c(c1C)C(c1ccc(N3CCC(C)(CNc4ncc(C(=O)N[C@H]5C(C)(C)[C@H](Oc6ccc(C#N)c(Cl)c6)C5(C)C)cn4)CC3)cc1)=NC(Cc1ncco1)c1nnc(C)n1-2 (stereo partly drawn) [Compound I-667] | < 500 | < 500 | < 500 |
| CCNC(=O)C[C@@H]1N=C(c2ccc(OCCOCCOC3CCN(c4ncc(C(=O)N[C@H]5C(C)(C)[C@H](Oc6ccc(C#N)c(Cl)c6)C5(C)C)cn4)CC3)c(F)c2F)c2c(sc(C)c2C)-n2c(C)nnc21 [Compound I-74] | < 500 | 500 to 1500 | < 500 |
| Cc1sc2c(c1C)C(c1ccc(N3CCO[C@@H](CNc4ncc(C(=O)N[C@H]5C(C)(C)[C@H](Oc6ccc(C#N)c(Cl)c6)C5(C)C)cn4)C3)cc1)=NC(Cc1ncco1)c1nnc(C)n1-2 (stereo partly drawn) [Compound I-669] | < 500 | < 500 | < 500 |
| Cc1sc2c(c1C)C(c1ccc(Cl)cc1)=NC(CC(=O)NCCOCCCCOC1CCN(c3ncc(C(=O)N[C@H]4C(C)(C)[C@H](Oc5ccc(C#N)c(Cl)c5)C4(C)C)cn3)CC1)c1nnc(C)n1-2 (stereo partly drawn) [Compound I-30] | < 500 | < 500 | < 500 |
| Cc1sc2c(c1C)C(c1ccc(Cl)cc1)=N[C@@H](CC(=O)NCCCOCCOC1CCN(c3ncc(C(=O)N[C@H]4C(C)(C)[C@H](Oc5ccc(C#N)c(Cl)c5)C4(C)C)cn3)CC1)c1nnc(C)n1-2 [Compound I-26] | < 500 | 500 to 1500 | < 500 |
| Cc1sc2c(c1C)C(c1ccc(N3CCC4(CC3)CC(Nc3ncc(C(=O)N[C@H]5C(C)(C)[C@H](Oc6ccc(C#N)c(Cl)c6)C5(C)C)cn3)C4)cc1)=N[C@@H](Cc1ncco1)c1nnc(C)n1-2 [Compound I-668] | < 500 | < 500 | < 500 |
| Cc1sc2c(c1C)C(c1ccc(Cl)cc1)=N[C@@H](CC(=O)NCCCOCCCCOC1CCN(c3ncc(C(=O)N[C@H]4C(C)(C)[C@H](Oc5ccc(C#N)c(Cl)c5)C4(C)C)cn3)CC1)c1nnc(C)n1-2 [Compound I-33] | < 500 | < 500 | < 500 |
| CCNC(=O)C[C@@H]1N=C(c2ccc(OCCCCCCOC3CCN(c4ncc(C(=O)N[C@H]5C(C)(C)[C@H](Oc6ccc(C#N)c(Cl)c6)C5(C)C)cn4)CC3)cc2)c2c(sc(C)c2C)-n2c(C)nnc21 [Compound I-63] | < 500 | 500 to 1500 | 1500 to 3000 |
| Cc1sc2c(c1C)C(c1ccc(N3CCCN(CCCNc4ncc(C(=O)N[C@H]5C(C)(C)[C@H](Oc6ccc(C#N)c(Cl)c6)C5(C)C)cn4)CC3)cc1)=N[C@@H](Cc1ncco1)c1nnc(C)n1-2 [Compound I-666] | < 500 | 1500 to 3000 | < 500 |
| CCNC(=O)C[C@@H]1N=C(c2ccc(CCCCOC3CCN(c4ncc(C(=O)N[C@H]5C(C)(C)[C@H](Oc6ccc(C#N)c(Cl)c6)C5(C)C)cn4)CC3)cc2)c2c(sc(C)c2C)-n2c(C)nnc21 [Compound I-91] | < 500 | 500 to 1500 | 500 to 1500 |
| Cc1sc2c(c1C)C(c1ccc(-n3cc(C4CCN(c5ncc(C(=O)N[C@H]6C(C)(C)[C@H](Oc7ccc(C#N)c(Cl)c7)C6(C)C)cn5)CC4)nn3)cc1)=N[C@@H](Cc1ncco1)c1nnc(C)n1-2 [Compound I-481] | < 500 | 500 to 1500 | < 500 |
| CCNC(=O)C[C@@H]1N=C(c2ccc(OCCCCOC3CCN(c4ncc(C(=O)NC5C(C)(C)C(Oc6ccc(C#N)c(Cl)c6)C5(C)C)cn4)CC3)cc2)c2c(sc(C)c2C)-n2c(C)nnc21 (stereo partly drawn) [Compound I-64] | < 500 | < 500 | < 500 |
